Data from ChEMBL document CHEMBL4219160, “The discovery of novel diarylpyri(mi)dine derivatives with high level activity against a wide variety of HIV-1 strains as well as against HIV-2” (Bioorg Med Chem, 2018).

Assays:
[1] = Cytotoxicity against human MT4 cells assessed as reduction in cell viability after 5 days by MTT assay; assay type: cell-based
[2] = system: Human immunodeficiency virus 1; experiment: microbe, parasite or virus in culture; conditions: Human immunodeficiency virus 1, 3B, MT4, 120 h
Description: Antiviral activity against wild type HIV1 3B infected in human MT4 cells assessed as protection against virus-induced cytopathic effect after 5 days by MTT assay

[3] = system: Human immunodeficiency virus 2; experiment: Antiviral activity against HIV2 ROD infected in human MT4 cells assessed as protection against virus-induced cytopathic effect after 5 days by MTT assay; assay type: functional, organism-based; conditions: Human immunodeficiency virus 2, ISOLATE ROD, MT4, 120 h
[4] = system: Human immunodeficiency virus 1; experiment: Antiviral activity against HIV1 harboring reverse transcriptase Y188L mutant infected in human MT4 cells assessed as protection against virus-induced cytopathic effect after 5 days by MTT assay; assay type: functional, organism-based; conditions: Human immunodeficiency virus 1, MT4, 120 h
[5] = system: Human immunodeficiency virus 1; experiment: Antiviral activity against HIV1 harboring reverse transcriptase RES056 double mutant infected in human MT4 cells assessed as protection against virus-induced cytopathic effect after 5 days by MTT assay; assay type: functional, organism-based; conditions: Human immunodeficiency virus 1, MT4, 120 h
[6] = target: Human immunodeficiency virus type 1 reverse transcriptase (Human immunodeficiency virus 1, UniProt Q72547); experiment: Inhibition of wild type HIV1 reverse transcriptase using poly (A)/oligo (dT)15 as template/primer assessed as decrease in biotin-dUTP incorporation after 1 hr by ELISA
[7] = system: Human immunodeficiency virus 1; experiment: Antiviral activity against HIV1 harboring reverse transcriptase Y181C mutant infected in human MT4 cells assessed as protection against virus-induced cytopathic effect after 5 days by MTT assay; assay type: functional, organism-based; conditions: Human immunodeficiency virus 1, MT4, 120 h
[8] = system: Human immunodeficiency virus 1; experiment: Antiviral activity against HIV1 harboring reverse transcriptase F227L/V106A double mutant infected in human MT4 cells assessed as protection against virus-induced cytopathic effect after 5 days by MTT assay; assay type: functional, organism-based; conditions: Human immunodeficiency virus 1, MT4, 120 h
[9] = system: Human immunodeficiency virus 1; experiment: Antiviral activity against HIV1 harboring reverse transcriptase K103N mutant infected in human MT4 cells assessed as protection against virus-induced cytopathic effect after 5 days by MTT assay; assay type: functional, organism-based; conditions: Human immunodeficiency virus 1, MT4, 120 h
[10] = system: Human immunodeficiency virus 1; experiment: Antiviral activity against HIV1 harboring reverse transcriptase E138K mutant infected in human MT4 cells assessed as protection against virus-induced cytopathic effect after 5 days by MTT assay; assay type: functional, organism-based; conditions: Human immunodeficiency virus 1, MT4, 120 h
in vitro = conditions: human, MT4 cells
Description: Selectivity index, ratio of CC50 for human MT4 cells to EC50 for wild type HIV1 3B infected in human MT4 cells

[11] = target: Human immunodeficiency virus type 1 reverse transcriptase (Human immunodeficiency virus 1, UniProt Q72547, K103N/Y181C); experiment: Inhibition of HIV1 reverse transcriptase K103N/Y181C double mutant using poly (A)/oligo (dT)15 as template/primer assessed as decrease in biotin-dUTP incorporation after 1 hr by ELISA
[12] = system: Human immunodeficiency virus 1; experiment: Antiviral activity against HIV1 harboring reverse transcriptase L100I mutant infected in human MT4 cells assessed as protection against virus-induced cytopathic effect after 5 days by MTT assay; assay type: functional, organism-based; conditions: Human immunodeficiency virus 1, MT4, 120 h

| SMILES | CC50 at 120 h [1] [nM] | EC50 [2] [nM] | EC50 [3] [nM] | EC50 [4] [nM] | EC50 [5] [nM] | IC50 [6] [nM] | EC50 [7] [nM] | EC50 [8] [nM] | EC50 [9] [nM] | EC50 [10] [nM] | selectivity ratio (in vitro) | IC50 [11] [nM] | EC50 [12] [nM] |
| --- | --- | --- | --- | --- | --- | --- | --- | --- | --- | --- | --- | --- | --- |
| Cc1cc(/C=C/C#N)cc(C)c1Oc1cc(NCCN2CCN(C)CC2)nc(Nc2ccc(C#N)cc2)c1 | 7960 | 24.8 | > 7960 | > 7960 | 1320 | 2190 | 1430 | 5700 | 28 | 770 | 321 | 6240 | 2020 |
| C=CCNc1cc(Oc2c(C)cc(/C=C/C#N)cc2C)cc(Nc2ccc(C#N)cc2)n1 | 82100 | 9.99 | > 82100 | > 82100 | 30400 | 270 | 1090 | ≥ 57400 | 27 | 43 | 8220 | 31300 | 630 |
| Cc1cc(/C=C/C#N)cc(C)c1Oc1cc(NCCC#N)nc(Nc2ccc(C#N)cc2)n1 | 1000 | 1.36 | 320 | 31 | 14 | 20 | 9.9 | 190 | 1.2 | 6.5 | 736 | 100 | 11 |
| Cc1cc(/C=C/C#N)cc(C)c1Oc1cc(NCCN(C)C)nc(Nc2ccc(C#N)cc2)n1 | 3040 | 1.48 | > 3040 | 900 | 27 | 10 | 9 | 310 | 2.4 | 41 | 2050 | 20 | 10 |
| COCCNc1cc(Oc2c(C)cc(/C=C/C#N)cc2C)nc(Nc2ccc(C#N)cc2)n1 | 3190 | 1.56 | 1560 | 51 | 42 | 40 | 9.4 | 220 | 1.7 | 6.4 | 2040 | 230 | 9.3 |
| C=CCNc1cc(Oc2c(C)cc(/C=C/C#N)cc2C)nc(Nc2ccc(C#N)cc2)n1 | 3050 | 1.52 | > 3050 | 56 | 44 | 30 | 13 | 530 | 4.8 | 4.4 | 2000 | 190 | 21 |
| Cc1cc(/C=C/C#N)cc(C)c1Oc1cc(NCCN2CCOCC2)nc(Nc2ccc(C#N)cc2)c1 | 43200 | 1.68 | > 42000 | > 43200 | 430 | 740 | 220 | 4430 | 1.7 | 77 | 25600 | 6270 | 240 |
| Cc1cc(/C=C/C#N)cc(C)c1Oc1cc(NCCN2CCNCC2)nc(Nc2ccc(C#N)cc2)n1 | 3650 | 24.7 | > 3650 | > 3650 | 770 | 440 | 610 | > 3650 | 31 | 940 | 148 | 1120 | 790 |
| Cc1cc(/C=C/C#N)cc(C)c1Oc1cc(Cl)nc(Nc2ccc(C#N)cc2)c1 | > 312000 | 7.81 | > 312000 | > 312000 | > 312000 | 180 | 1170 | > 312000 | 33 | 43 | > 39900 |  | 710 |
| Cc1cc(/C=C/C#N)cc(C)c1Oc1cc(NCC2CCCO2)nc(Nc2ccc(C#N)cc2)n1 (stereo unspecified) | > 268000 | 29 | > 268000 | > 268000 | 44400 | 440 | 6970 | 172000 | 91 | 150 | > 9240 | 86900 | 2890 |
| Cc1cc(/C=C/C#N)cc(C)c1Oc1cc(NC2CC2)nc(Nc2ccc(C#N)cc2)n1 | 3000 | 2.68 | > 3000 | 110 | 58 | 50 | 35 | 350 | 2.6 | 10 | 1120 | 240 | 23 |
| Cc1cc(/C=C/C#N)cc(C)c1Oc1cc(NCCCN2CCOCC2)nc(Nc2ccc(C#N)cc2)c1 | ≥ 4720 | 4.76 | ≥ 4720 | ≥ 4720 | 700 | 970 | 760 | 5010 | 5.6 | 110 | ≥ 992 | 7800 | 530 |
| COC(CNc1cc(Oc2c(C)cc(/C=C/C#N)cc2C)nc(Nc2ccc(C#N)cc2)n1)OC | 3470 |  |  |  |  | 170 |  |  |  |  |  |  |  |
| Cc1cc(/C=C/C#N)cc(C)c1Oc1cc(Nc2ccc(C#N)cc2)nc(NC2CC2)c1 | 24800 | 3.35 | > 24800 | > 24800 | 2820 | 350 | 210 | 5350 | 8 | 27 | 7400 | 5390 | 170 |
| Cc1cc(/C=C/C#N)cc(C)c1Oc1cc(Cl)nc(Nc2ccc(C#N)cc2)n1 | 4310 | 1.69 | > 4310 | 48 | 44 | 20 | 11 | 160 | 2.4 | 9.3 | 2560 | 80 | 8.8 |
| COCCNc1cc(Oc2c(C)cc(/C=C/C#N)cc2C)cc(Nc2ccc(C#N)cc2)n1 | 58200 | 6.24 | > 58200 | 41500 | 4790 | 920 | 1370 | 22300 | 28 | 57 | 9330 | 18100 | 740 |
| Cc1cc(/C=C/C#N)cc(C)c1Oc1cc(NCC2CCCO2)nc(Nc2ccc(C#N)cc2)c1 (stereo unspecified) | 73600 | 28.8 | > 73600 | > 73600 | 31600 | 630 | 4540 | > 73600 | 48 | 170 | 2560 | 41200 | 2600 |
| Cc1cc(/C=C/C#N)cc(C)c1Oc1cc(NCCN2CCOCC2)nc(Nc2ccc(C#N)cc2)n1 | 3540 | 1.54 | 1420 | 98 | 21 | 140 | 7.2 | 180 | 1.7 | 7.5 | 2310 | 340 | 10 |
| Cc1cc(/C=C/C#N)cc(C)c1Oc1cc(NCCN(C)C)nc(Nc2ccc(C#N)cc2)c1 | 4270 | 1.91 | > 4270 | > 4270 | 230 | 830 | 180 | > 4270 | 2.7 | 970 | 2240 | 2470 | 190 |
| O=C1Nc2ccc(Cl)cc2[C@@](C#CC2CC2)(C(F)(F)F)O1 [EFAVIRENZ] | > 6340 |  |  | 130 | 110 |  | 6 | 120 | 110 | 49 |  |  | 47 |
| Cc1cc(C#N)cc(C)c1Oc1nc(Nc2ccc(C#N)cc2)nc(N)c1Br [ETRAVIRINE] |  |  |  | 21 | 26 |  | 20 | 24 |  |  |  |  | 10 |
| Cc1ccnc2c1NC(=O)c1cccnc1N2C1CC1 [NEVIRAPINE] | > 15000 | 125 |  |  | > 15000 |  |  |  | 10300 | 280 |  |  | 3250 |
| Cc1cn([C@H]2C[C@H](N=[N+]=[N-])[C@@H](CO)O2)c(=O)[nH]c1=O [ZIDOVUDINE] | > 7480 | 11.4 | 8.1 |  | 12 |  | 6 |  |  | 18 | > 658 |  |  |
